Article PMC10609013, “Solubility and Thermodynamic Analysis of Isotretinoin in Different (DMSO + Water) Mixtures” (Molecules, 2023)

What was measured:
[1] = Activity coefficients (γi) of ITN, Equation (4); type: physicochemical
Excerpt: Finally, the x^idl values for ITN were derived from Equation (2). Equation (4) was used to derive the γi values for ITN in numerous {DMSO (1) + H2O (2)} mixes including neat DMSO and H2O [56, 58]:(4) γi=x^idl/xe

[2] = design: method as in PMID 36431759; settings: cited from earlier work

CC1=C(/C=C/C(C)=C/C=C/C(C)=C\C(=O)O)C(C)(C)CCC1 [ITN, isotretinoin]
γi activity coefficient ([1]; DMSO mass fraction m = 0.0, T = 298.2 K): 1,366,467
γi activity coefficient ([1]; DMSO mass fraction m = 0.0, T = 303.2 K): 972,627.0
γi activity coefficient ([1]; DMSO mass fraction m = 0.0, T = 308.2 K): 611,320.0
γi activity coefficient ([1]; DMSO mass fraction m = 0.0, T = 313.2 K): 441,076.0
γi activity coefficient ([1]; DMSO mass fraction m = 0.0, T = 318.2 K): 326,128.0
γi activity coefficient ([1]; DMSO mass fraction m = 0.1, T = 298.2 K): 384,000.0
γi activity coefficient ([1]; DMSO mass fraction m = 0.1, T = 303.2 K): 278,000.0
γi activity coefficient ([1]; DMSO mass fraction m = 0.1, T = 308.2 K): 187,000.0
γi activity coefficient ([1]; DMSO mass fraction m = 0.1, T = 313.2 K): 136,000.0
γi activity coefficient ([1]; DMSO mass fraction m = 0.1, T = 318.2 K): 106,000.0
γi activity coefficient ([1]; DMSO mass fraction m = 0.2, T = 298.2 K): 111,979.0
γi activity coefficient ([1]; DMSO mass fraction m = 0.2, T = 303.2 K): 83,952.80
γi activity coefficient ([1]; DMSO mass fraction m = 0.2, T = 308.2 K): 58,249.00
γi activity coefficient ([1]; DMSO mass fraction m = 0.2, T = 313.2 K): 43,099.10
γi activity coefficient ([1]; DMSO mass fraction m = 0.2, T = 318.2 K): 34,943.20
γi activity coefficient ([1]; DMSO mass fraction m = 0.3, T = 298.2 K): 31,441.80
γi activity coefficient ([1]; DMSO mass fraction m = 0.3, T = 303.2 K): 24,298.30
γi activity coefficient ([1]; DMSO mass fraction m = 0.3, T = 308.2 K): 17,811.50
γi activity coefficient ([1]; DMSO mass fraction m = 0.3, T = 313.2 K): 13,802.30
γi activity coefficient ([1]; DMSO mass fraction m = 0.3, T = 318.2 K): 11,402.70
γi activity coefficient ([1]; DMSO mass fraction m = 0.4, T = 298.2 K): 9161.740
γi activity coefficient ([1]; DMSO mass fraction m = 0.4, T = 303.2 K): 7310.360
γi activity coefficient ([1]; DMSO mass fraction m = 0.4, T = 308.2 K): 5568.540
γi activity coefficient ([1]; DMSO mass fraction m = 0.4, T = 313.2 K): 4372.740
γi activity coefficient ([1]; DMSO mass fraction m = 0.4, T = 318.2 K): 3713.1570
γi activity coefficient ([1]; DMSO mass fraction m = 0.5, T = 298.2 K): 2602.340
γi activity coefficient ([1]; DMSO mass fraction m = 0.5, T = 303.2 K): 2166.250
γi activity coefficient ([1]; DMSO mass fraction m = 0.5, T = 308.2 K): 1703.980
γi activity coefficient ([1]; DMSO mass fraction m = 0.5, T = 313.2 K): 1429.250
γi activity coefficient ([1]; DMSO mass fraction m = 0.5, T = 318.2 K): 1233.060
γi activity coefficient ([1]; DMSO mass fraction m = 0.6, T = 298.2 K): 751.8650
γi activity coefficient ([1]; DMSO mass fraction m = 0.6, T = 303.2 K): 644.3650
γi activity coefficient ([1]; DMSO mass fraction m = 0.6, T = 308.2 K): 534.7140
γi activity coefficient ([1]; DMSO mass fraction m = 0.6, T = 313.2 K): 438.6560
γi activity coefficient ([1]; DMSO mass fraction m = 0.6, T = 318.2 K): 399.5110
γi activity coefficient ([1]; DMSO mass fraction m = 0.7, T = 298.2 K): 211.8050
γi activity coefficient ([1]; DMSO mass fraction m = 0.7, T = 303.2 K): 189.9250
γi activity coefficient ([1]; DMSO mass fraction m = 0.7, T = 308.2 K): 164.4500
γi activity coefficient ([1]; DMSO mass fraction m = 0.7, T = 313.2 K): 146.1890
γi activity coefficient ([1]; DMSO mass fraction m = 0.7, T = 318.2 K): 133.4190
γi activity coefficient ([1]; DMSO mass fraction m = 0.8, T = 298.2 K): 61.49
γi activity coefficient ([1]; DMSO mass fraction m = 0.8, T = 303.2 K): 56.72
γi activity coefficient ([1]; DMSO mass fraction m = 0.8, T = 308.2 K): 51.11
γi activity coefficient ([1]; DMSO mass fraction m = 0.8, T = 313.2 K): 46.46
γi activity coefficient ([1]; DMSO mass fraction m = 0.8, T = 318.2 K): 42.45
γi activity coefficient ([1]; DMSO mass fraction m = 0.9, T = 298.2 K): 17.6
γi activity coefficient ([1]; DMSO mass fraction m = 0.9, T = 303.2 K): 16.68
γi activity coefficient ([1]; DMSO mass fraction m = 0.9, T = 308.2 K): 16.02
γi activity coefficient ([1]; DMSO mass fraction m = 0.9, T = 313.2 K): 14.84
γi activity coefficient ([1]; DMSO mass fraction m = 0.9, T = 318.2 K): 14.42
γi activity coefficient ([1]; DMSO mass fraction m = 1.0, T = 298.2 K): 5.057
γi activity coefficient ([1]; DMSO mass fraction m = 1.0, T = 303.2 K): 4.988
γi activity coefficient ([1]; DMSO mass fraction m = 1.0, T = 308.2 K): 4.919
γi activity coefficient ([1]; DMSO mass fraction m = 1.0, T = 313.2 K): 4.829
γi activity coefficient ([1]; DMSO mass fraction m = 1.0, T = 318.2 K): 4.791
total HSP (δt) [2]: 19.30 MPa^1/2
